According to PMC8161391, “Synthesis of Novel Fluorinated Xanthine Derivatives with High Adenosine A2B Receptor Binding Affinity” (Pharmaceuticals, 2021):
“And” between values parts separate entries of the source, which are not always exact repeats. Equal entries are not always repeated. Where two headings read alike, the source gives them in different places.

Tests used:
[1] = biological target: T1, human adenosine A3 receptor (Homo sapiens, UniProt P0DMS8); assay: Competition binding assay, A3 receptor, radioligand [3H]PSB-11; conditions: for Selectivity Ratio Ki(Ax)/Ki(A2B) A3/A2B: human receptors; for inhibition at 1 µM / Ki: human receptor; for inhibition at 1 µM: at a concentration of 1 µM; for Ki: vs [3H]PSB-11, mean ± SEM of three experiments
T1 construct: host or cells: CHO or HEK cells (membrane preparations)
T1 sequence (P0DMS8 1-318): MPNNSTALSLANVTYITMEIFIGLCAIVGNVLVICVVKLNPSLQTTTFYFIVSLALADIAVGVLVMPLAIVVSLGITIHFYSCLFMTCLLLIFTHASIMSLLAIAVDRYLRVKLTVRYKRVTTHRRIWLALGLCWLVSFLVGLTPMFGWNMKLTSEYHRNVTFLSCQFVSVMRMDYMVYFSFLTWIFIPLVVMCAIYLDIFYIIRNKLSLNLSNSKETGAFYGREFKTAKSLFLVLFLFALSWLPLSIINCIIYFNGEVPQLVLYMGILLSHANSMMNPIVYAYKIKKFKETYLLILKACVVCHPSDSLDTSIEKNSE
Protocol: (§1) For the two novel fluorinated xanthine derivatives, the binding affinity towards the adenosine receptor subtypes A2B, A2A, A1, and A3 was determined in competition binding assays by incubation of the appropriate standard radioligand with membrane preparations of Chinese hamster ovary (CHO) and human embryonic kidney (HEK) cells, respectively, expressing the corresponding human receptor subtype (Table 2).
(§2) Membrane preparations of recombinant CHO or HEK cells expressing the respective human adenosine receptor subtype were obtained according to Borrman et al. or purchased from Perkin Elmer (Waltham, MA, USA). Radioligand binding assays for human A1, A2A, A2B, and A3 receptors were performed according to Alnouri et al.. The following radioligands were employed: [^3H]2-chloro-N^6-cyclopentyladenosine ([^3H]CCPA, 1 nM) for the A1 receptor, [^3H]3-(3-hydroxypropyl)-7-methyl-8-(m-methoxystyryl)-1-propargylxanthine ([^3H]MSX-2, 1 nM) for the A2A receptor, [^3H]8-(4-[4-(4-chlorophenyl)piperazine-1-sulfonyl]phenyl)-1-propyl-2,3,6,7-tetrahydro-1H-purine-2,6-dione ([^3H]PSB-603, 0.3 nM) for the A2B receptor, and [^3H](R)-8-ethyl-4-methyl-2-(phenyl)1,4,7,8-tetrahydro-5H-imidazo[2,1-i]purin-5-one ([^3H]PSB-11, 1 nM) for the A3 receptor. Three separate experiments were performed for determination of Ki values. All data were analyzed with GraphPad Prism, version 4.1 (GraphPad Inc., La Jolla, CA).

adenosine A2A receptor [2] = assay: Receptor binding with adenosine-receptor-expressing rat brain cortical membranes, A2A; conditions: rat A2A versus human A2B, from published Ki values
adenosine A1 receptor [3] = assay: Receptor binding with adenosine-receptor-expressing rat brain cortical membranes, A1; conditions: rat A1 versus human A2B, from published Ki values
adenosine A2A receptor [4] = biological target: adenosine A2A receptor; set-up: method as in PMID 19569717, PMID 30835463, PMID 16821798; conditions: rat brain cortical membranes; cited from earlier work
adenosine A1 receptor [5] = biological target: adenosine A1 receptor; set-up: method as in PMID 19569717, PMID 30835463, PMID 16821798; conditions: rat brain cortical membranes; cited from earlier work
[6] = biological target: T1, human adenosine A3 receptor; set-up: method as in PMID 19569717, PMID 30835463, PMID 16821798; conditions: cited from earlier work; for % Inhibition of Radioligand Binding A3: at a concentration of 1 µM (as headed)
[7] = biological target: T2, human adenosine A2B receptor (Homo sapiens, UniProt P29275); assay: Competition binding assay, A2B receptor, radioligand [3H]PSB-603; conditions: vs [3H]PSB-603, mean ± SEM of three experiments
T2 construct: host or cells: CHO or HEK cells (membrane preparations)
T2 sequence (P29275 1-332): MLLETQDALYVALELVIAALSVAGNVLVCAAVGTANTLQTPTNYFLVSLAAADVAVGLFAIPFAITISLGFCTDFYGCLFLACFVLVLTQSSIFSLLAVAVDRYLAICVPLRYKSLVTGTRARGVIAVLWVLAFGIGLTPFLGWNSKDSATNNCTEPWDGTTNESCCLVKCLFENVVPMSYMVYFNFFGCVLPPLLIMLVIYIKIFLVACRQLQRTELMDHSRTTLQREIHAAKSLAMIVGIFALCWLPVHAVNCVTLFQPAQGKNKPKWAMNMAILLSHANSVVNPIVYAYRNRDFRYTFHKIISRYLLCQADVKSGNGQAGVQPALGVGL
Protocol: as §1, §2

[8] = biological target: T3, human adenosine A2A receptor (Homo sapiens, UniProt P29274); assay: Competition binding assay, A2A receptor, radioligand [3H]MSX-2; conditions: for Ki: human receptor, vs [3H]MSX-2, mean ± SEM of three experiments; for Selectivity Ratio Ki(Ax)/Ki(A2B) A2A/A2B: human receptors
T3 construct: host or cells: CHO or HEK cells (membrane preparations)
Protocol: as §1, §2

[9] = biological target: T4, human adenosine A1 receptor (Homo sapiens, UniProt P30542); assay: Competition binding assay, A1 receptor, radioligand [3H]CCPA; conditions: for Ki: vs [3H]CCPA, mean ± SEM of three experiments; for Selectivity Ratio Ki(Ax)/Ki(A2B) A1/A2B: human receptors
T4 construct: host or cells: CHO or HEK cells (membrane preparations)
T4 sequence (P30542 1-326): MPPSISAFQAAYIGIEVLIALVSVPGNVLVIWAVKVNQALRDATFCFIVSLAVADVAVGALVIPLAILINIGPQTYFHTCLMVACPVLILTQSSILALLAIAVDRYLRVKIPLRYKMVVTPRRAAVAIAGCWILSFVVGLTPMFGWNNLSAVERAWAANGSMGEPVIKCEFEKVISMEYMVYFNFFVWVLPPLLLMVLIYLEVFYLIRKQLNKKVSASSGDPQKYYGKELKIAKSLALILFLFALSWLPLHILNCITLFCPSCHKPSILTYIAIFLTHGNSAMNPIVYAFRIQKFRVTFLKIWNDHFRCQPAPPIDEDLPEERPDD
Protocol: as §1, §2

human A2B [10] = biological target: human A2B; set-up: method as in PMID 16759111; conditions: determined versus [3H]ZM214385; read-out: Ki (human A2B) ± SEM; cited from earlier work
[11] = Organ distribution of [3H]PSB-603 in mice; format: in vivo, CD-1 mice; conditions: 3 min p.i.
Protocol: To estimate the ability of [^3H]PSB-603 to penetrate the BBB in vivo, an initial biodistribution study in healthy CD1 mice was performed.
All animal studies followed the international guidelines on animal care, and the study protocols were approved by the Landesdirektion Leipzig, the local authority for animal care (Reg.-Nr.: TVV 08/13; Reference number: 24-9168.11/18/8; approval date: 12 June 2013). Animal experiments were performed with female CD-1 mice, 10–12 weeks old, obtained from the Experimental Centre of the Faculty of Medicine (MEZ) at the Leipzig University, Leipzig, Germany.
[^3H]PSB-603 (specific activity 2.92 TBq/mmol, Pharmaron formerly Quotient Bioresearch (Radiochemicals) Ltd, Cardiff, UK; the precursor was synthesized at the University of Bonn, Germany) was dissolved in 100 µL of sterile isotonic saline and administered as a bolus injection via the tail vein of the restrained animal. At 3 min (n = 3; dose: […]), retro-orbital blood samples were obtained from the anesthetized animals. Immediately afterwards, organs of interest were isolated and blood plasma was obtained by centrifugation of the whole blood sample (15,000 rpm, room temperature, 1 min). All samples were weighed and dissolved in SOLVABLE (PerkinElmer Life and Analytical Sciences, Rodgau, Germany) for 5 h at 50 °C, overnight at 30 °C, and a further 5 h at 50 °C. By adding H2O2, decolorization of the samples was achieved. The samples were left to cool down to room temperature before the addition of 15 mL of Ultima Gold cocktail (PerkinElmer Life and Analytical Sciences, Rodgau, Germany). The samples were shaken overnight, and the radioactivity was measured in a Beckman Liquid Scintillation Counter LS 6500 (Beckman Coulter, Fullerton, CA, USA). For each sample, the percentage of the injected dose was calculated and normalized according to the tissue weight (% ID/g tissue), followed by normalization according to the injected dose and the weight of the animal [(% ID/g tissue)/(100%/g animal)] to calculate the standardized uptake value (SUV) for each tissue.

[12] = biological target: T3, human adenosine A2A receptor; set-up: method as in PMID 19569717, PMID 30835463, PMID 16821798; conditions: cited from earlier work
[13] = biological target: T4, human adenosine A1 receptor; set-up: method as in PMID 19569717, PMID 30835463, PMID 16821798; conditions: cited from earlier work
adenosine A2B receptor = conditions: cited from earlier work
[14] = cited from earlier work
[15] = set-up: method as in PMID 32366046; conditions: cited from earlier work
human A2B [16] = conditions: determined versus [3H]ZM214385 or [125I]IABOPX; read-out: Ki (human A2B) ± SEM; cited from earlier work
[17] = at a concentration of 1 µM (as headed)

T3 sequence (P29274 whole entry): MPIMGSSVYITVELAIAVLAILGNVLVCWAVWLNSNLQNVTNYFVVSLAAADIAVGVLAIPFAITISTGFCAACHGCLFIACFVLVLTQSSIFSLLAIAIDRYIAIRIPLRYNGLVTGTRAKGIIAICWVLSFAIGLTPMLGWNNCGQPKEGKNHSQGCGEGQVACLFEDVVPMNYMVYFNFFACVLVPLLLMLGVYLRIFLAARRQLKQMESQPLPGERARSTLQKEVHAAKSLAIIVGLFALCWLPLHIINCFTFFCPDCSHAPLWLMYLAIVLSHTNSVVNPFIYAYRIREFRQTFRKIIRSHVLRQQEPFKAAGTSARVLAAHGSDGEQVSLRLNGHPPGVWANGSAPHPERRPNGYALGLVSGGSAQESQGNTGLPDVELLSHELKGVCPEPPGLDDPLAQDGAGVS

## CCCn1c(=O)[nH]c2nc(-c3ccc(S(=O)(=O)N4CCCCC4)cc3)[nH]c2c1=O [Compound 8]
[1]
  Selectivity Ratio Ki(Ax)/Ki(A2B) A3/A2B: 7
Adenosine A2A receptor [2]
  Selectivity Ratio Ki(Ax)/Ki(A2B) A2A/A2B: 35
Adenosine A1 receptor [3]
  Selectivity Ratio Ki(Ax)/Ki(A2B) A1/A2B: 4
Adenosine A2A receptor [4]
  Ki: 714 ± 122 nM
Adenosine A1 receptor [5]
  Ki: 91.1 ± 25 nM

## CCCn1c(=O)[nH]c2nc(-c3ccc(S(=O)(=O)Nc4ccccc4)cc3)[nH]c2c1=O [Compound 7]
[1]
  Selectivity Ratio Ki(Ax)/Ki(A2B) A3/A2B: >32
Adenosine A2A receptor [2]
  Selectivity Ratio Ki(Ax)/Ki(A2B) A2A/A2B: 0.7
Adenosine A1 receptor [3]
  Selectivity Ratio Ki(Ax)/Ki(A2B) A1/A2B: 0.06
[6]
  % Inhibition of Radioligand Binding A3: 48%
  Ki: > 1000 nM
Adenosine A2A receptor [4]
  Ki: 23 ± 13 nM
Adenosine A1 receptor [5]
  Ki: 1.8 ± 1 nM

## CCCn1c(=O)[nH]c2nc(-c3ccc(S(=O)(=O)N4CCC(F)CC4)cc3)[nH]c2c1=O [Compound 6, 8-(4-((4-Fluoropiperidin-1-yl)sulfonyl)phenyl)-1-propyl-3,7-dihydro-1H-purine-2,6-dione]
[7]
  Ki: 12.3 ± 3.6 nM
[8]
  Ki: 158 ± 28 nM
  Selectivity Ratio Ki(Ax)/Ki(A2B) A2A/A2B: 13
[9]; human receptor, at a concentration of 1 µM
  inhibition at 1 µM: 44%
[9]; human receptor
  Ki: ~1000 nM
[9]
  Selectivity Ratio Ki(Ax)/Ki(A2B) A1/A2B: 81
[1]
  inhibition at 1 µM: 38%
  Ki: > 1000 nM
  Selectivity Ratio Ki(Ax)/Ki(A2B) A3/A2B: >81

## Cn1c(=O)c2[nH]c(-c3cnn(Cc4cccc(C(F)(F)F)c4)c3)nc2n(C)c1=O [CVT-6975]
Human A2B [10]
  Ki: 1 nM

## [^3H]8-(4-[4-(4-chlorophenyl)piperazine-1-sulfonyl]phenyl)-1-propyl-2,3,6,7-tetrahydro-1H-purine-2,6-dione [[^3H]PSB-603]
[11]; mice
  uptake in the bladder, appendix, and lung: low to moderate
  uptake in the liver: high
  uptake in the pituitary gland: moderate
[11]; mouse brain, i.v., n = 3
  standardized uptake value (SUV) in brain: 0.21 ± 0.07 and 0.2

## CCCn1c(=O)[nH]c2nc(-c3ccc(S(=O)(=O)N4CCN(c5ccc(Cl)cc5)CC4)cc3)[nH]c2c1=O [PSB-603, 8-(4-[4-(4-chlorophenyl)piperazine-1-sulfonyl]phenyl)-1-propyl-2,3,6,7-tetrahydro-1H-purine-2,6-dione]
[8]
  Selectivity Ratio Ki(Ax)/Ki(A2B) A2A/A2B: >18,000
[9]
  Selectivity Ratio Ki(Ax)/Ki(A2B) A1/A2B: >18,000
[1]
  Selectivity Ratio Ki(Ax)/Ki(A2B) A3/A2B: >18,000
[12]; [17]
  % Inhibition of Radioligand Binding A2A: 7 ± 14%
[12]
  Ki: > 10000 nM
[13]; [17]
  % Inhibition of Radioligand Binding A1: 10 ± 3%
[13]
  Ki: > 10000 nM
[6]
  % Inhibition of Radioligand Binding A3: 10 ± 15%
  Ki: > 10000 nM

## O=c1[nH]c(=O)c2cc(-c3ccnc([18F])c3)c(-c3ccco3)nc2[nH]1 [Compound 3]
Adenosine A2B receptor
  affinity towards the A2B receptor (in words): good affinity
[14]; compared to 2
  in vivo stability (in words): considerably improved in vivo stability
[15]
  brain uptake (in words): rather low

## CCCn1c(=O)[nH]c2nc(-c3ccc(S(=O)(=O)Nc4ccnc(F)c4)cc3)[nH]c2c1=O [Compound 5, 4-(2,6-Dioxo-1-propyl-2,3,6,7-tetrahydro-1H-purin-8-yl)-N-(2-fluoropyridin-4-yl)benzenesulfonamide]
[7]
  Ki: 9.97 ± 0.86 nM
[8]
  Ki: 375 ± 53 nM
  Selectivity Ratio Ki(Ax)/Ki(A2B) A2A/A2B: 38
[9]; human receptor
  Ki: 255 ± 32 nM
[9]
  Selectivity Ratio Ki(Ax)/Ki(A2B) A1/A2B: 25
[1]
  inhibition at 1 µM: 45%
  Ki: ~1000 nM

## [11CH3]n1nc(-c2ccccc2)c(=O)n2c3ccccc3nc12 [Compound 1]
Adenosine A2B receptor
  IC50: 210 ± 12.3 nM

## CCCn1c(=O)c2[nH]c(-c3ccc(OCC(=O)Nc4ccc(C#N)cc4)cc3)nc2n(CCC)c1=O [MRS-1754]
Human A2B [16]
  Ki: 1.97 ± 0.31 nM

## O=C(Nc1cnc(-c2ccnc([18F])c2)c(-c2ccccc2F)n1)C1CC1 [Compound 2]
Adenosine A2B receptor
  affinity towards the adenosine A2B receptor (in words): good affinity
[14]; metabolism studies in mice
  metabolic degradation in vivo (in words): rapid metabolic degradation
